Converted amounts (≈) assume the structure as drawn.
What was measured:
C. perfringens MH310 = test: microbe, parasite or virus in culture; type: cell-based; conditions: C. perfringens MH310
Escherichia coli strains = test: MIC by microdilution in Mueller-Hinton broth against Escherichia coli strains; type: cell-based; conditions: for MIC: Mueller-Hinton broth
Enterococcus faecalis = test: MIC by microdilution in Mueller-Hinton broth against Enterococcus faecalis strains; type: cell-based
Enterococci faecium = test: MIC by microdilution in Mueller-Hinton broth against Enterococci faecium strains; type: cell-based, Enterococcus faecium; conditions: Mueller-Hinton broth
[1] = system: Staphylococcus aureus strains; test: MIC by microdilution in Mueller-Hinton broth against Staphylococcus aureus strains; type: cell-based
Bacteroides Strains = test: MIC by microdilution in Brucella broth against Bacteroides strains; type: cell-based, Bacteroides spp.
Fusobacterium = test: MIC by microdilution in Brucella broth against Fusobacterium; type: cell-based, Fusobacterium spp.; conditions: Brucella broth
Lactobacillus strains = test: MIC against Lactobacillus strains; type: cell-based, Lactobacillus spp.; conditions: broth microdilution, BHI with 0.02% Tween 80, pH 6.0
[2] = system: Lachnospiraceae and related bacterial strains; test: MIC against Lachnospiraceae and related bacterial strains; type: cell-based, Lachnospiraceae spp.; conditions: broth microdilution, brucella broth

`CCN=c1cc2n(-c3cccc(C(F)(F)F)c3)c3ccccc3nc-2cc1Nc1cccc(C(F)(F)F)c1` [B4129] was tested, and the MIC (C. perfringens MH310; BB) was 0.25 µg/mL (≈ 0.475 µM), the MIC (C. perfringens MH310; BHI) was 2 µg/mL (≈ 3.8 µM) and the “activity against E. coli (in words)” value (Escherichia coli strains) was “relatively inactive”. It also gave an MIC (Escherichia coli strains; Escherichia coli strain NR 6) of over 32 µg/mL, an MIC (Escherichia coli strains; Escherichia coli strain NR 8) of over 32 µg/mL and an MIC (Escherichia coli strains; Escherichia coli strain NR 96) of over 32 µg/mL. It also gave an MIC (Escherichia coli strains; Escherichia coli strain NR 104) of over 32 µg/mL, an MIC (Escherichia coli strains; Escherichia coli strain NR 17626) of over 32 µg/mL and an MIC (Escherichia coli strains; Escherichia coli strain NR 17627) of over 32 µg/mL. The MIC (Escherichia coli strains; Escherichia coli strain NR 17633) was over 32 µg/mL, the MIC (Escherichia coli strains; Escherichia coli strain NR 17647) was over 32 µg/mL and the MIC (Escherichia coli strains; Escherichia coli strain NR 17650) was over 32 µg/mL. For the same molecule, the MIC (Escherichia coli strains; Escherichia coli strain NR 17661) was over 32 µg/mL, the MIC (Enterococcus faecalis; E. faecalis NR 31884) was over 32 µg/mL and the MIC (Enterococcus faecalis; E. faecalis NR 31885) was over 32 µg/mL. The MIC (Enterococcus faecalis; E. faecalis NR 31886) was over 32 µg/mL, the MIC (Enterococcus faecalis; E. faecalis NR 31887) was over 32 µg/mL and the MIC (Enterococcus faecalis; E. faecalis NR 31888) was over 32 µg/mL. For the same molecule, the MIC (Enterococci faecium; E. faecium NR 31903) was over 32 µg/mL, the MIC (Enterococci faecium; E. faecium NR 31909) was over 32 µg/mL and the MIC (Enterococci faecium; E. faecium NR 31912) was over 32 µg/mL. For the same molecule, the MIC (Enterococci faecium; E. faecium NR 31915) was over 32 µg/mL, the MIC (Enterococci faecium; E. faecium NR 31916) was over 32 µg/mL and the MIC ([1]; Staphylococcus aureus strain NR 10129) was 32 µg/mL (≈ 60.8 µM). It also gave an MIC ([1]; Staphylococcus aureus strain NR 10186) of over 32 µg/mL, an MIC ([1]; Staphylococcus aureus strain NR 10187) of over 32 µg/mL and an MIC ([1]; Staphylococcus aureus strain NR 10188) of over 32 µg/mL. For the same molecule, the MIC ([1]; Staphylococcus aureus strain NR 10189) was over 32 µg/mL, the MIC ([1]; Staphylococcus aureus strain NR 10191) was over 32 µg/mL and the MIC ([1]; Staphylococcus aureus strain NR 10192) was over 32 µg/mL. The MIC ([1]; Staphylococcus aureus strain NR 10193) was over 32 µg/mL, the MIC ([1]; Staphylococcus aureus strain NR 10194) was 32 µg/mL (≈ 60.8 µM) and the MIC ([1]; Staphylococcus aureus strain NR 10198) was over 32 µg/mL. The MIC (Bacteroides Strains; B. caccae HM728) was 2 µg/mL (≈ 3.8 µM), the MIC (Bacteroides Strains; B. eggerthii HM210) was 2 µg/mL (≈ 3.8 µM) and the MIC (Bacteroides Strains; B. fragilis HM709) was 2 µg/mL (≈ 3.8 µM). It also gave an MIC (Bacteroides Strains; B. fragilis HM710) of 2 µg/mL (≈ 3.8 µM), an MIC (Bacteroides Strains; B. fragilis HM714) of 4 µg/mL (≈ 7.6 µM) and an MIC (Bacteroides Strains; B. ovatus HM222) of 0.25 µg/mL (≈ 0.475 µM). For the same molecule, the MIC (Bacteroides Strains; B. spp. HM18) was 16 µg/mL (≈ 30.4 µM), the MIC (Bacteroides Strains; B. spp. HM19) was 0.5 µg/mL (≈ 0.95 µM) and the MIC (Bacteroides Strains; B. spp. HM20) was 2 µg/mL (≈ 3.8 µM). It also gave an MIC (Bacteroides Strains; B. spp. HM22) of 2 µg/mL (≈ 3.8 µM), an MIC (Bacteroides Strains; B. spp. HM23) of 16 µg/mL (≈ 30.4 µM) and an MIC (Bacteroides Strains; B. spp. HM27) of 1 µg/mL (≈ 1.9 µM). It also gave an MIC (Bacteroides Strains; B. spp. HM28) of 2 µg/mL (≈ 3.8 µM), an MIC (Bacteroides Strains; B. spp. HM58) of 2 µg/mL (≈ 3.8 µM) and an MIC (Bacteroides Strains; B. stercoris HM1036) of 0.25 µg/mL (≈ 0.475 µM). It also gave an MIC (Fusobacterium; F. nucleatum HM-75) of over 32 µg/mL, an MIC (Fusobacterium; F. nucleatum HM-260) of over 32 µg/mL and an MIC (Fusobacterium; F. nucleatum HM-992) of over 32 µg/mL. For the same molecule, the MIC (Fusobacterium; F. nucleatum HM-993) was 8 µg/mL (≈ 15.2 µM), the MIC (Fusobacterium; F. nucleatum HM-994) was over 32 µg/mL and the MIC (Fusobacterium; F. nucleatum HM-995) was over 32 µg/mL. It also gave an MIC (Fusobacterium; F. nucleatum HM-996) of over 32 µg/mL, an MIC (Fusobacterium; F. nucleatum HM-997) of over 32 µg/mL and an MIC (Fusobacterium; Fusobacterium sp. HM 42) of over 32 µg/mL. For the same molecule, the MIC (Fusobacterium; Fusobacterium sp. HM 57) was over 32 µg/mL, the MIC (Fusobacterium; Fusobacterium sp. HM-556) was over 32 µg/mL and the MIC (Fusobacterium; Fusobacterium sp. HM-758) was over 32 µg/mL. It also gave an MIC (Fusobacterium; Fusobacterium sp. HM-871) of over 32 µg/mL, an MIC (Fusobacterium; Fusobacterium sp. HM-874) of over 32 µg/mL and an MIC (Fusobacterium; Fusobacterium sp. HM-875) of over 32 µg/mL. It also gave an MIC (Lactobacillus strains; Lactobacillus crispatus HM-637) of 16 µg/mL (≈ 30.4 µM), an MIC (Lactobacillus strains; Lactobacillus gasseri HM-104) of over 32 µg/mL and an MIC (Lactobacillus strains; Lactobacillus iners HM-126) of 1 µg/mL (≈ 1.9 µM). The MIC (Lactobacillus strains; Lactobacillus jensenii HM-105) was over 32 µg/mL, the MIC (Lactobacillus strains; Lactobacillus jhonsonii HM-643) was over 32 µg/mL and the MIC (Lactobacillus strains; Lactobacillus reuteri HM-102) was over 32 µg/mL. It also gave an MIC (Lactobacillus strains; Lactobacillus rhamnosus HM-106) of over 32 µg/mL, an MIC (Lactobacillus strains; Lactobacillus sp. HM-228) of 1 µg/mL (≈ 1.9 µM) and an MIC (Lactobacillus strains; Lactobacillus sp. HM-478) of over 32 µg/mL. For the same molecule, the MIC (Lactobacillus strains; Lactobacillus vaginalis HM-405) was 2 µg/mL (≈ 3.8 µM), the MIC ([2]; Clostridiales bacterium HM-84) was “≦0.031 μg/ml” and the MIC ([2]; Clostridiales bacterium HM-182) was 0.125 µg/mL (≈ 0.237 µM). For the same molecule, the MIC ([2]; Eubacterium sp. HM-178) was 0.125 µg/mL (≈ 0.237 µM), the MIC ([2]; Lachnospiraceae sp. HM-7) was “≦0.031 μg/ml” and the MIC ([2]; Lachnospiraceae sp. HM-150) was 0.125 µg/mL (≈ 0.237 µM). It also gave an MIC ([2]; Lachnospiraceae sp. HM-153) of 0.125 µg/mL (≈ 0.237 µM), an MIC ([2]; Lachnospiraceae sp. HM-154) of 0.125 µg/mL (≈ 0.237 µM) and an MIC ([2]; Lachnospiraceae sp. HM-157) of 0.25 µg/mL (≈ 0.475 µM). It also gave an MIC ([2]; Lachnospiraceae sp. HM-161) of 0.125 µg/mL (≈ 0.237 µM), an MIC ([2]; Lachnospiraceae sp. HM-480) of 0.062 µg/mL (≈ 0.118 µM) and an MIC ([2]; Lachnospiraceae sp. HM-558) of 0.125 µg/mL (≈ 0.237 µM). For the same molecule, the MIC ([2]; Lachnospiraceae sp. HM-768) was “≦0.031 μg/ml”, the MIC ([2]; Lachnospiraceae sp. HM-868) was over 32 µg/mL and the MIC ([2]; Peptostreptococcaceae sp. HM-766) was 0.5 µg/mL (≈ 0.95 µM).

From patent US9849130B2 (KamTek, Inc., priority 2014, dated 2017)
